Measurements reported in PubChem BioAssay (NCI).
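Briefly, cells in 96-well plates were exposed to five compound concentrations for 48 h, and endpoints were estimated by linear interpolation. At the GI50, growth is halved. TGI: total growth inhibition.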

Experiments:
Assay in all cases: growth of human tumour cells (NCI), 48 h
NCI-H522 lung = system: NCI-H522 lung
SNB-19 CNS = system: SNB-19 CNS
SF-539 CNS = system: SF-539 CNS
SN12C renal = system: SN12C renal
HOP-92 NSCLC = system: HOP-92 NSCLC
A498 renal = system: A498 renal
HT29 colon = system: HT29 colon
SK-MEL-2 melanoma = system: SK-MEL-2 melanoma
COLO 205 colon = system: COLO 205 colon
HOP-62 NSCLC = system: HOP-62 NSCLC
MALME-3M melanoma = system: MALME-3M melanoma
UACC-62 melanoma = system: UACC-62 melanoma
NCI-H226 lung = system: NCI-H226 lung
SF-268 CNS = system: SF-268 CNS
HS 578T breast = system: HS 578T breast
UACC-257 melanoma = system: UACC-257 melanoma
A549 NSCLC = system: A549 NSCLC
M14 melanoma = system: M14 melanoma
SW-620 colon = system: SW-620 colon
HCT-116 colon = system: HCT-116 colon
EKVX NSCLC = system: EKVX NSCLC
SK-MEL-28 melanoma = system: SK-MEL-28 melanoma
786-0 renal = system: 786-0 renal
SK-MEL-5 melanoma = system: SK-MEL-5 melanoma
PC-3 prostate = system: PC-3 prostate
NCI-H23 lung = system: NCI-H23 lung
DU-145 prostate = system: DU-145 prostate

For `C=C(CN1CCc2ccccc2C1)c1ccc(CCC(=O)Nc2ccccc2N)cc1`, the GI50 (NCI-H522 lung) was 16.2 µM, the TGI (NCI-H522 lung) was 38.2 µM and the GI50 (SNB-19 CNS) was 64.3 µM. It also gave a TGI (SNB-19 CNS) of over 100 µM, a GI50 (SF-539 CNS) of 19.4 µM and a TGI (SF-539 CNS) of 37 µM. It also gave a GI50 (SN12C renal) of 17.3 µM, a TGI (SN12C renal) of 51 µM and a GI50 (HOP-92 NSCLC) of 87.4 µM. It also gave a TGI (HOP-92 NSCLC) of over 100 µM, a GI50 (A498 renal) of 26.1 µM and a TGI (A498 renal) of 68.7 µM. The GI50 (HT29 colon) was 31 µM, the TGI (HT29 colon) was over 100 µM and the GI50 (SK-MEL-2 melanoma) was 23.9 µM. It also gave a TGI (SK-MEL-2 melanoma) of 54 µM, a GI50 (COLO 205 colon) of 23.6 µM and a TGI (COLO 205 colon) of 48 µM. The GI50 (HOP-62 NSCLC) was 65.7 µM, the TGI (HOP-62 NSCLC) was over 100 µM and the GI50 (MALME-3M melanoma) was 8.7 µM. The TGI (MALME-3M melanoma) was 36.8 µM, the GI50 (UACC-62 melanoma) was 26.9 µM and the TGI (UACC-62 melanoma) was over 100 µM. The GI50 (NCI-H226 lung) was 27.1 µM, the TGI (NCI-H226 lung) was 71.2 µM and the GI50 (SF-268 CNS) was 14.6 µM. The TGI (SF-268 CNS) was 45.3 µM, the GI50 (HS 578T breast) was 44 µM and the TGI (HS 578T breast) was over 100 µM. The GI50 (UACC-257 melanoma) was 22.6 µM, the TGI (UACC-257 melanoma) was 46.4 µM and the GI50 (A549 NSCLC) was 41.3 µM. For the same compound, the TGI (A549 NSCLC) was over 100 µM, the GI50 (M14 melanoma) was 17.6 µM and the TGI (M14 melanoma) was 34.3 µM. It also gave a GI50 (SW-620 colon) of 28.3 µM, a TGI (SW-620 colon) of 65.8 µM and a GI50 (HCT-116 colon) of 16.2 µM. It also gave a TGI (HCT-116 colon) of 32.4 µM, a GI50 (EKVX NSCLC) of 37.1 µM and a TGI (EKVX NSCLC) of over 100 µM. The GI50 (SK-MEL-28 melanoma) was 42.6 µM, the TGI (SK-MEL-28 melanoma) was over 100 µM and the GI50 (786-0 renal) was 18.3 µM. For the same compound, the TGI (786-0 renal) was over 100 µM, the GI50 (SK-MEL-5 melanoma) was 18 µM and the TGI (SK-MEL-5 melanoma) was 33.2 µM. It also gave a GI50 (PC-3 prostate) of 25.4 µM, a TGI (PC-3 prostate) of over 100 µM and a GI50 (NCI-H23 lung) of 28.6 µM. For the same compound, the TGI (NCI-H23 lung) was 85.2 µM, the GI50 (DU-145 prostate) was 18.7 µM and the TGI (DU-145 prostate) was 48.7 µM.
